Values joined by “and” are separate entries in the source; they are usually repeats but may differ in a detail not shown here. Identical values can stand only once.
Key:
BCAT2 [1] = target: T1, BCAT2 (Homo sapiens, UniProt O15382); assay: BCAT2 in vitro enzyme inhibition assay (resazurin/diaphorase-coupled fluorescence); assay type: biochemical; settings: average where tested multiple times
T1 sequence (O15382 28-392): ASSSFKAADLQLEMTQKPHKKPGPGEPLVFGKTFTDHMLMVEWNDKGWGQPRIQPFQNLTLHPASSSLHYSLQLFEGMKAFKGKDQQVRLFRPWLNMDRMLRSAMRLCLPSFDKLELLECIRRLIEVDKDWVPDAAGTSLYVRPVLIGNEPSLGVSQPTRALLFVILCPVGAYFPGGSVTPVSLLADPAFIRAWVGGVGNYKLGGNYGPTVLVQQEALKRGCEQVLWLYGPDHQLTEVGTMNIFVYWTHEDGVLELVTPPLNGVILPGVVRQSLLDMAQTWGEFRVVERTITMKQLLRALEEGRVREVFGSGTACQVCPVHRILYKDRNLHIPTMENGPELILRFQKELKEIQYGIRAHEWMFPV
Procedure: BCAT2 In Vitro Enzyme Inhibition Assay
1.67× hBCAT2 Enzyme Mix: 0.33 μg/mL hBCAT2, 1× Buffer
2.5× Substrate Mix: 460 μM L-leucine, 420 μM α-KetoGlutarate, 10 U/mL glutamate dehydrogenase, 10 mM NAD, 30 μg/mL diaphorase, 20 μm Resazurin
BCAT2 enzyme stock solution was diluted to prepare a 1.67× hBCAT2 Enzyme Mix. 1 μL of test compound was first added to the reaction wells followed by 30 μL of 1.67× hBCAT2 Enzyme Mix and incubated at room temperature (25° C.) for one hour. Meanwhile the Substrate Mix was prepared. The reaction was initiated by the addition of 20 μL of the 2.5× Substrate Mix, bringing the final reaction mix of all components to 1×. Reactions were quenched after one hour by the addition of 25 μL of 6% SDS and reaction progress was measured via fluorescence read (Ex 540/Em 590).
Test Compound Preparation:
Test compounds were prepared at 50× final concentration in DMSO, 1 to 3 dilutions were made for 10 points. The compounds were added to the assay as a 1 to 50 dilution (1 μL in 50 μL) to yield a top assay final concentration of 100 μM, decreasing 3-fold for 10 points. Each compound dilution series test also included an assay max (1 μL DMSO Added in lieu of compound, Full Reaction Components Included) and Min (1 μL DMSO Added in lieu of compound, 30 μl of 1.67× hBCAT2 Enzyme Mix replated by 30 μL of 1× Buffer). All tests were performed in technical duplicate.
Where a compound was tested multiple times, the average value of the tests is reported.

BCAT2 [2] = target: T1, BCAT2; assay: BCAT2 in vitro cell inhibition using engineered A549 cells (KMV cell assay, 13C6-KMV by LC-MS/MS); assay type: cell-based; design: The result was an engineered A549 cell line that expressed endogenous BCAT2; endogenous in cells; host or cells: A549 cells with MUT and BCAT1 knocked out by CRISPR/CAS9; key to BCAT2 Cell Inhibition: A: less than or equal to 0.100 μM; B: greater than 0.100 and less than or equal to 0.500 μM; C: greater than 0.500 and less than or equal to 1.000 μM; d: greater than 1.000 μM; E: no fit; settings: average where tested multiple times

| Compound | IC50 (BCAT2 [1]) | BCAT2 Cell Inhibition (BCAT2 [2]) | IC50 (BCAT2 [2]) |
| --- | --- | --- | --- |
| CC(C)Cc1nc2cnc(-n3nccn3)cc2n1[C@@H]1COC[C@H](NC(=O)c2ccc(Cl)s2)C1 (single isomer, unassigned) [Example 140] | > 1 µM | E |  |
| O=C(N[C@H]1CCC[C@@H](n2c(C3COCCO3)nc3cnc(-c4nc[nH]n4)cc32)C1)c1ncc(Cl)s1 (single isomer, unassigned) [Example 177] | 0.5 to 1 µM | E |  |
| O=C(N[C@H]1CCC[C@@H](n2c(-c3ccccc3F)nc3cnc(C4CCCO4)cc32)C1)c1ncc(Cl)s1 (single isomer, unassigned) [Example 201] | 0.5 to 1 µM | E |  |
| CC(C)Cc1nc2cnc(-c3ccccn3)cc2n1[C@H]1C[C@H](O)C[C@@H](NC(=O)c2ncc(Cl)s2)C1 (single isomer, unassigned) [Example 215] | 0.5 to 1 µM | E |  |
| CO[C@@H]1C[C@@H](NC(=O)c2ncc(Cl)s2)C[C@@H](n2c(-c3ccccc3F)nc3cnc(-c4nc[nH]n4)cc32)C1 (single isomer, unassigned) [Example 219] | 0.1 to 0.5 µM |  | > 1 µM |
| CC(C)Cc1nc2cnc(-n3nccn3)cc2n1[C@H]1C[C@H](O)C[C@@H](NC(=O)c2ccc(Cl)s2)C1 (single isomer, unassigned) [Example 396] | ≤ 0.1 µM |  | > 1 µM |
| CO[C@H]1C[C@@H](NC(=O)c2ncc(Cl)s2)C[C@@H](n2c(CC(C)C)nc3cnc(-n4nccn4)cc32)C1 (single isomer, unassigned) [Example 440] | 0.5 to 1 µM | E |  |
| CO[C@@H]1C[C@@H](NC(=O)c2ncc(Cl)s2)C[C@@H](n2c(CC(C)(C)C)nc3cnc(-c4ccccn4)cc32)C1 (single isomer, unassigned) [Example 441] | > 1 µM | E |  |
| CO[C@@H]1C[C@@H](NC(=O)c2ncc(Cl)s2)C[C@@H](n2c(-c3ncccc3F)nc3cnc(-c4nc[nH]n4)cc32)C1 (single isomer, unassigned) [Example 443] | > 1 µM | E |  |
| CC(C)Cc1nc2cnc(-c3cccc(F)n3)cc2n1[C@@H]1C[C@@H](O)C[C@H](NC(=O)c2ncc(Cl)s2)C1 (stereo in doubt) [Example 384, 5-chloro-N-((1R,3S,5S)-3-(6-(6-fluoropyridin-2-yl)-2-isobutyl-1H-imidazo[4,5-c]pyridin-1-yl)-5-hydroxycyclohexyl)thiazole-2-carboxamide] | > 1 µM |  | > 1 µM |
| CO[C@H]1C[C@H](NC(=O)c2ncc(Cl)s2)C[C@H](n2c(CC(C)C)nc3cnc(-c4nc[nH]n4)cc32)C1 (stereo in doubt) [Example 413, 5-chloro-N-((1R,3S,5S)-3-(2-isobutyl-6-(1H-1,2,4-triazol-3-yl)-1H-imidazo[4,5-c]pyridin-1-yl)-5-methoxycyclohexyl)thiazole-2-carboxamide] | > 1 µM | E |  |
| CO[C@H]1C[C@H](NC(=O)c2ncc(Cl)s2)C[C@H](n2c(-c3ccccc3F)nc3cnc(-n4cncn4)cc32)C1 (stereo in doubt) [Example 415, 5-chloro-N-((1R,3S,5S)-3-(2-(2-fluorophenyl)-6-(1H-1,2,4-triazol-1-yl)-1H-imidazo[4,5-c]pyridin-1-yl)-5-methoxycyclohexyl)thiazole-2-carboxamide] | > 1 µM | E |  |
| CO[C@@H]1C[C@H](NC(=O)c2ncc(Cl)s2)C[C@H](n2c(CC(C)C)nc3cnc(-c4nc[nH]n4)cc32)C1 (stereo in doubt) [Example 431, 5-chloro-N-((1R,3S,5R)-3-(2-isobutyl-6-(1H-1,2,4-triazol-3-yl)-1H-imidazo[4,5-c]pyridin-1-yl)-5-methoxycyclohexyl)thiazole-2-carboxamide] | 0.5 to 1 µM |  | > 1 µM |
| CO[C@@H]1C[C@@H](NC(=O)c2ncc(Cl)s2)C[C@@H](n2c(-c3ncccc3F)nc3cnc(-c4nc[nH]n4)cc32)C1 (stereo in doubt) [Example 444, 5-chloro-N-((1S,3R,5R)-3-(2-(3-fluoropyridin-2-yl)-6-(1H-1,2,4-triazol-3-yl)-1H-imidazo[4,5-c]pyridin-1-yl)-5-methoxycyclohexyl)thiazole-2-carboxamide] | ≤ 0.1 µM |  | ≤ 0.1 µM |
| O=C(N[C@H]1C[C@@H](n2c(-c3ccccc3F)nc3cnc(-c4nc[nH]n4)cc32)CS(=O)(=O)C1)c1ccc(Cl)s1 [Example 457, 5-chloro-N-((3S,5R)-5-(2-(2-fluorophenyl)-6-(1H-1,2,4-triazol-3-yl)-1H-imidazo[4,5-c]pyridin-1-yl)-1,1-dioxidotetrahydro-2H-thiopyran-3-yl)thiophene-2-carboxamide] | 0.1 to 0.5 µM |  |  |

The next lines start with the values.

| IC50 (BCAT2 [1]) | BCAT2 Cell Inhibition (BCAT2 [2]) | IC50 (BCAT2 [2]) | Compound |
| --- | --- | --- | --- |
| ≤ 0.1 µM |  | 0.5 to 1 µM | CC(C)C(O)c1nc2cnc(-c3nc[nH]n3)cc2n1[C@@H]1CCC[C@H](NC(=O)c2ncc(Cl)s2)C1 (single isomer, unassigned) [Example 182] |
| 0.5 to 1 µM | E |  | O=C(N[C@H]1CCC[C@@H](n2c(-c3ccccc3F)nc3cnc(C4CCCO4)cc32)C1)c1ncc(Cl)s1 (single isomer, unassigned) [Example 200] |
| 0.1 to 0.5 µM |  | > 1 µM | O=C(N[C@@H]1C[C@@H](O)C[C@H](n2c(-c3ccccc3F)nc3cnc(-c4ccn[nH]4)cc32)C1)c1ncc(Cl)s1 (single isomer, unassigned) [Example 259] |
| > 1 µM | E |  | CO[C@@H]1C[C@@H](NC(=O)c2ncc(Cl)s2)C[C@@H](n2c(CC(C)C)nc3cnc(-c4ncc(C)o4)cc32)C1 (single isomer, unassigned) [Example 428] |
| 0.1 to 0.5 µM |  | > 1 µM | CO[C@H]1C[C@H](NC(=O)c2ccc(Cl)s2)C[C@H](n2c(-c3ccccc3F)nc3cnc(-c4nc[nH]n4)cc32)C1 (stereo in doubt) [Example 411, 5-chloro-N-((1R,3S,5S)-3-(2-(2-fluorophenyl)-6-(1H-1,2,4-triazol-3-yl)-1H-imidazo[4,5-c]pyridin-1-yl)-5-methoxycyclohexyl)thiophene-2-carboxamide] |
| ≤ 0.1 µM |  | ≤ 0.1 µM and 0.1 to 0.5 µM | CO[C@@H]1C[C@H](NC(=O)c2ncc(Cl)s2)C[C@H](n2c(-c3ccccc3F)nc3cnc(-c4nc[nH]n4)cc32)C1 (stereo in doubt) [Example 419, 5-chloro-N-((1R,3S,5R)-3-(2-(2-fluorophenyl)-6-(1H-1,2,4-triazol-3-yl)-1H-imidazo[4,5-c]pyridin-1-yl)-5-methoxycyclohexyl)thiazole-2-carboxamide] |
| ≤ 0.1 µM |  |  | CS(=O)(=O)N1C[C@@H](NC(=O)c2ncc(Cl)s2)C[C@@H](n2c(-c3ccccc3F)nc3cnc(-c4nc[nH]n4)cc32)C1 [Example 461, 5-chloro-N-((3S,5R)-5-(2-(2-fluorophenyl)-6-(1H-1,2,4-triazol-3-yl)-1H-imidazo[4,5-c]pyridin-1-yl)-1-(methylsulfonyl)piperidin-3-yl)thiazole-2-carboxamide] |
| ≤ 0.1 µM |  |  | COCCOc1ccccc1-c1nc2cnc(-c3nc[nH]n3)cc2n1[C@@H]1CCC[C@H](NC(=O)c2ncc(Cl)s2)C1 [Example 464, 5-chloro-N-((1S,3R)-3-(2-(2-(2-methoxyethoxy)phenyl)-6-(1H-1,2,4-triazol-3-yl)-1H-imidazo[4,5-c]pyridin-1-yl)cyclohexyl)thiazole-2-carboxamide] |
